Reference: patent US20040151679A1, “Dissolving agent for melanin” (priority 2001, published 2004)

assay: Rate of dissolution of model melanin and color of its solutions; format: physicochemical, Aspergillus niger; settings: not given

pH of the solution | Compound
9.5 | [Na+].[OH-] [0.01 N sodium hydroxide, sodium hydroxide]
3.5 | CC(=O)O [0.01 N solution of acetic acid, acetic acid]
10.5 | N [0.01% ammonia, ammonia]
7 | FC(F)(Br)C(F)(F)Br [1,2-dibromtetrafluoroethane]
10 | NCCO [Monoethanolamine]
7 | FC1(F)C(F)(F)C(F)(F)C2(F)C(F)(F)C(F)(F)C(F)(F)C(F)(F)C2(F)C1(F)F (stereo not drawn) [Perfluorodecalin (PFD), perfluorodecalin]
7 | FC(F)(F)C(F)(F)C(F)(F)N(C(F)(F)C(F)(F)C(F)(F)F)C(F)(F)C(F)(F)C(F)(F)F [Tri(perfluoropropyl)amine (TPA), tri(perfluoropropyl)amine]
8 | CCN(CC)CC [Triethylamine]

Compound | pH of the solution
OO [4% solution of HP, hydrogen peroxide] | 3.5
FN(F)C1(C(F)(F)F)C(F)(F)C(F)(F)C(F)(F)C(F)(C(F)(F)F)C1(F)F (stereo not drawn) [Perfluoro-1,3-dimethyl-cyclohexylamine] | 7

same assay, conditions: model melanin

Time of dissolution [min] | Compound
6 | [Na+].[OH-] [0.01 N sodium hydroxide, sodium hydroxide]
5 | N [0.01% ammonia, ammonia]
5 | FC(F)(Br)C(F)(F)Br [1,2-dibromtetrafluoroethane]
2 | NCCO [Monoethanolamine]

Compound | Time of dissolution [min]
FN(F)C1(C(F)(F)F)C(F)(F)C(F)(F)C(F)(F)C(F)(C(F)(F)F)C1(F)F (stereo not drawn) [Perfluoro-1,3-dimethyl-cyclohexylamine] | 3

same assay, conditions: model melanin, 1 mg/ml in PFOC

Time of dissolution [min] | Compound
0.5 | FC1(F)C(F)(F)C(F)(F)C2(F)C(F)(F)C(F)(F)C(F)(F)C(F)(F)C2(F)C1(F)F (stereo not drawn) [Perfluorodecalin (PFD), perfluorodecalin]
0.5 | FC(F)(F)C(F)(F)C(F)(F)N(C(F)(F)C(F)(F)C(F)(F)F)C(F)(F)C(F)(F)C(F)(F)F [Tri(perfluoropropyl)amine (TPA), tri(perfluoropropyl)amine]

same assay, conditions: model melanin; not dissolved within this time

Time of dissolution | Compound
Not dissolved in 5 hours | CC(=O)O [0.01 N solution of acetic acid, acetic acid]
Not dissolved in 5 hours | CCN(CC)CC [Triethylamine]

Compound | Time of dissolution
OO [4% solution of HP, hydrogen peroxide] | Not dissolved in 5 hours

same assay, conditions: solution of model melanin

Color of the solution | Compound
Yellow- | [Na+].[OH-] [0.01 N sodium hydroxide, sodium hydroxide]
-”- | N [0.01% ammonia, ammonia]
Colorless | FC(F)(Br)C(F)(F)Br [1,2-dibromtetrafluoroethane]
-”- | NCCO [Monoethanolamine]
Colorless | FC1(F)C(F)(F)C(F)(F)C2(F)C(F)(F)C(F)(F)C(F)(F)C(F)(F)C2(F)C1(F)F (stereo not drawn) [Perfluorodecalin (PFD), perfluorodecalin]
Colorless | FC(F)(F)C(F)(F)C(F)(F)N(C(F)(F)C(F)(F)C(F)(F)F)C(F)(F)C(F)(F)C(F)(F)F [Tri(perfluoropropyl)amine (TPA), tri(perfluoropropyl)amine]

Compound | Color of the solution
FN(F)C1(C(F)(F)F)C(F)(F)C(F)(F)C(F)(F)C(F)(C(F)(F)F)C1(F)F (stereo not drawn) [Perfluoro-1,3-dimethyl-cyclohexylamine] | Lemon
